Assay results as given in patent publication US7304064B2, “1-[(indol-3-yl)carbonyl]piperazine derivatives” (N.V. Organon, priority 2002, dated 2007).
Read-outs that look alike come from different tables or passages of the source.

How the values were obtained:
[1] = target: T1, human CB1 receptor (Homo sapiens, UniProt P21554); assay: In-vitro determination of efficacy and potency at the human CB1 receptor expressed in CHO cells (luciferase reporter); type: cell-based
T1 construct: expressed in transfected cells; host or cells: CHO (Chinese Hamster Ovary) cells

[2] = system: Mice; assay: Tail flick latency in mice; type: in vivo; conditions: Mus musculus, iv, administered intravenously, ED50 calculated at Tmax, read-out: ED50 (increase of tail flick latency)
Description: Mice were trained to sit still in a tail flick apparatus (Ugo Basile, Italy) whilst tail flick latency was measured. The tail was exposed to a focused beam of radiant heat at a point approximately 2.5 cm from the tip. Tail flick latency was defined as the interval between the appliance of the thermal stimulus and withdrawal of the tail. A 12 second cut-off was employed to prevent tissue damage. Four groups of eight mice were treated with vehicle or one of three doses of the test compound, administered intravenously (vehicle: saline 9 g/l; injection volume 10 ml/kg). Tail flick latency was measured before administration of the test compound and at regular intervals (typically 20, 40 and 60 minutes) after compound administration. The ED50 was calculated at Tmax.

[3] = CHO cells expressing the human CB1 receptor and a luciferase reporter gene, 5 hours incubation, read-out: pEC50 (converted)

T1 sequence (P21554 whole entry): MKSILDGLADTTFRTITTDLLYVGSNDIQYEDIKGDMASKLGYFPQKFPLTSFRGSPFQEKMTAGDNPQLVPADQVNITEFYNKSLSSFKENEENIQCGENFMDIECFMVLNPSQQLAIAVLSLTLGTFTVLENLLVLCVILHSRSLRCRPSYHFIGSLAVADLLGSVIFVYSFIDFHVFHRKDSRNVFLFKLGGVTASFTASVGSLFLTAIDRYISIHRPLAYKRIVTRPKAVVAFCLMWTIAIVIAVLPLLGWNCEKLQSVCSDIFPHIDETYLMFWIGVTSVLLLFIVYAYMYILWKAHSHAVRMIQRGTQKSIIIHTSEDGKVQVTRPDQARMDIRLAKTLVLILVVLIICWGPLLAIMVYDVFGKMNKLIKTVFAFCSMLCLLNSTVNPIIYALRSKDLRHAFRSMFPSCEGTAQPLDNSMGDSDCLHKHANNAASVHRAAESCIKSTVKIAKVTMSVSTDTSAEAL

Row | SMILES | EC50 [1] [nM] | EC50 [1, 3] [nM] | ED50 [2] [µmol/kg]
1 | CCN1CCN(C(=O)c2cn(CC3CCCCC3)c3c(F)cccc23)CC1 [Example 5B, 1-{[1-(Cyclohexylmethyl)-7-fluoro-1H-indol-3-yl]carbonyl}-4-ethylpiperazine] | 100 |  | 
2 | COc1cccc2c(C(=O)N3CCN4CCCC[C@H]4C3)cn(CC3CCCC3)c12 [Example 17D, (S)-2-{[1-(Cyclopentylmethyl)-7-methoxy-1H-indol-3-yl]carbonyl}-octahydro-2H-pyrido[1,2-a]pyrazine] |  | 31.6 | < 5
3 | COc1cccc2c(C(=O)N3CCN(CCO)CC3)cn(CC3CCCCC3)c12 [Example 3C, 1-{[1-(Cyclohexylmethyl)-7-methoxy-1H-indol-3-yl]carbonyl}-4-(2-hydroxyethyl)piperazine] |  | 251 | 
4 | CCN1CCN(C(=O)c2cn(CC3CCCC3)c3c(OC)cccc23)CC1 [Example 2, 1-{[1-(Cyclopentylmethyl)-7-methoxy-1H-indol-3-yl]carbonyl}-4-ethylpiperazine] | 316 |  | 
5 | CCN1CCN(C(=O)c2cn(CCN3CCOCC3)c3c(OC)cccc23)CC1 [Ref. 2, 1-Ethyl-4-{[7-methoxy-1-[2-(4-morpholin-yl)ethyl]-1H-indol-3-y]carbonyl}-piperazine, reference compound] | > 10000 |  | 
6 | CCN1CCN(C(=O)c2cn(CC3CC=CCC3)c3c(OC)cccc23)CC1 (centres unmarked) [Example 5Q, 1-{[1-(Cyclohex-3-enylmethyl)-7-methoxy-1H-indol-3-yl]carbonyl}-4-ethylpiperazine] | 200 |  | 
7 | COc1cccc2c(C(=O)N3CC(C)N(C)C(C)C3)cn(CC3CCCCC3)c12 (centres unmarked) [Example 15F, 1-{[1-(cyclohexylmethyl)-7-methoxy-1H-indol-3-yl]carbonyl}-3,4,5-trimethylpiperazine] | 31.6 |  | < 5
8 | COc1cccc2c(C(=O)N3CCN4CCCC[C@H]4C3)cn(CC3CCCCC3)c12 [Example 17A, (S)-2-{[1-(Cyclohexylmethyl)-7-methoxy-1H-indol-3-yl]carbonyl}-octahydro-2H-Pyrido[1,2-a]pyrazine] |  | 12.6 | < 5
9 | CN1CCN(C(=O)c2cn(CC3CCCCC3)c3cc(F)ccc23)CC1 [Example 5T, 1-{[1-(Cyclohexylmethyl)-6-fluoro-1H-indol-3-yl]carbonyl}-4-methylpiperazine] | 251 |  | 
10 | CCN1CCN(C(=O)c2cn(Cc3ccccc3)c3c(OC)cccc23)CC1 [Ref. 3., 1-{[1-Benzyl-7-methoxy-1H-indol-3-yl]carbonyl}-4-ethylpiperazine, reference compound] | > 10000 |  | 
11 | COc1cccc2c(C(=O)N3CCN4CCC[C@H]4C3)cn(CC3CCCCC3)c12 [Example 17C, (S)-2-{[1-(Cyclohexylmethyl)-7-methoxy-1H-indol-3-yl]carbonyl}-octahydro-2H-Pyrrolo[1,2-a]pyrazine] |  | 25.1 | < 5
12 | COc1cccc2c(C(=O)N3CCN(C)[C@@H](C)C3)cn(CC3CCCCC3)c12 [Example 15O, (S)-1-{[1-(cyclohexylmethyl)-7-methoxy-1H-indol-3-yl]carbonyl}-3,4-dimethylpiperazine] | 25.1 |  | < 5
13 | CCN1C(C)CN(C(=O)c2cn(CC3CCCCC3)c3c(OC)cccc23)CC1C (centres unmarked) [Example 14, 1-{[1-(Cyclohexylmethyl)-7-methoxy-1H-indol-3-yl]carbonyl}-3,5-dimethyl-4-ethylpiperazine] | 10 |  | < 5
14 | CCN1CCN(C(=O)c2cn(C(C)C3CCCCC3)c3ccccc23)CC1 (single isomer, unassigned; (+)) [(+)-5I, (+)-1-{[1-(1-Cyclohexylethyl)-1H-indol-3-yl]carbonyl)-4-ethylpiperazine] | 79.4 |  | 
